Measured values: patent US20200397691A1, “NICOTINE MOUTH SPRAY” (Fertin Pharma A/S, priority 2017, published 2020)

Settings: nicotine concentration increased from 100 microgram/mL to 14,000 microgram/mL

CN1CCCC1c1cccnc1 (stereo not shown) [nicotine]
Decrease of permeability of nicotine across the buccal mucosa (factor): two
